Test results reported in patent US4440761A, “Interferon inducer, a process for producing the same and pharmaceutical composition containing the same” (The Kitasato Institute, priority 1980, dated 1984).
Entries after “also recorded” stand apart in the source; their conditions may differ. Like-named read-outs stand apart in the source and are kept apart here.

What was measured:
[1] = tested on: interferon; details: background, cited from earlier work
[2] = 56° C. for 5 hours; cited from earlier work
[3] = tested on: spleen cell; experiment: IF induction in vitro, mouse spleen cells (determined in L cells); type: cell-based; details: 1.0* μg/ml, control
[4] = tested on: spleen cell; experiment: IF induction in vitro, rabbit spleen cells (determined in RK-13); type: cell-based; details: 1.0* μg/ml, control
[5] = tested on: Human spleen; experiment: IF induction in vitro, human spleen (determined in FL cells); type: cell-based; details: 1.0* μg/ml, control
Method: A spleen cell suspension (10^7 cells/ml) was prepared by the method of hereinafter described Experiment 1 using an Eagle MEM medium (commercial product of Nissui Seiyaku K.K., Tokyo) containing a 10% calf serum (which was replaced by a 10% fetal cattle serum in the cases of human tests), each of which fraction (1 ml) was added with a given concentration of the sample and incubated overnight at a given temperature. The cultured liquor was centrifuged to separate a supernatant which was used for determining the IF activity induced. In the case of humans, the fresh spleen was collected from a person (adult deceased by external wounds) and used for the preparation of a leucocytes suspension on each occasion, and also blood was collected from the vein at the upper arm of a person (adult), from which the serum was separated to use for the preparation of a serum suspension of each occasion.
The IF activities were determined by using the cells shown in Table 5 in a similar manner to that hereinafter described in Experiment 1.

| Molecule | IF inducing activity [1] | IF-inducing activity on heating [2] | also measured |
| --- | --- | --- | --- |
| carthamone | no IF inducing activity | – | – |
| pokeweed mitogen | very weak; also recorded: extremely low | inactivated | – |
| neocarthamine | no IF inducing activity | – | – |
| Poly I:C | – | – | IF activity in vitro [3]: 75; IF activity in vitro [4]: 160; IF activity in vitro [5]: < 10 |
| O=C(/C=C/c1ccc(O)cc1)C1=C(O)[C@](O)([C@@H]2O[C@H](CO)[C@@H](O)[C@H](O)[C@H]2O)C(O)=C(/C=C2/C(=O)C(C(=O)/C=C/c3ccc(O)cc3)=C(O)[C@@](O)([C@@H]3O[C@H](CO)[C@@H](O)[C@H](O)[C@H]3O)C2=O)C1=O [carthamine] | no IF inducing activity | – | – |
| phytohemagglutinin | very weak | inactivated | IF inducing activity ([1]; listed as phytohemagglitinin): extremely low |
